This is an account of results in patent US8652999B1, “Herbicidal compositions comprising 4-amino-3-chloro-5-fluoro-6-(4-chloro-2-fluoro-3-methoxyphenyl)pyridine-2-carboxylic acid or a derivative thereof and a sulfonylaminocarbonyltriazolinone” (Dow AgroSciences, LLC., priority 2012, dated 2014).

Type in all cases: in vivo
One experiment deals with Stellaria media (STEME). Put plainly: Postemergence herbicidal activity, greenhouse, STEME. The following applies: foliar, 20-22 days. Here is the method:
(§1) Evaluation of Postemergence Herbicidal Activity of Mixtures in Cereal Crops
(§2) Seeds of the desired test plant species were planted in Sun Gro MetroMix® 306 planting mixture, which typically has a pH of 6.0 to 6.8 and an organic matter content of about 30 percent, in plastic pots with a surface area of 103.2 square centimeters (cm^2). […] The plants were grown for 7-36 days in a greenhouse with an approximate 14 hour photoperiod which was maintained at about 18° C. during the day and 17° C. during the night. Nutrients and water were added on a regular basis and supplemental lighting was provided with overhead metal halide 1000-Watt lamps as necessary. The plants were employed for testing when they reached the second or third true leaf stage.
(§3) Treatments consisted of the benzyl ester of the compound of formula (I) (Compound A as listed in Tables 1-8) and a second cereal herbicide alone and in combination. […] The concentrated stock solutions were diluted to 1.5 mg ai/mL with the addition of 2 volumes of an aqueous mixture containing acetone, water, isopropyl alcohol, DMSO, Agri-dex crop oil concentrate, and Triton® X-77 surfactant in a 64.7:26.0:6.7:2.0:0.7:0.01 v/v ratio. A dilution solution was prepared by mixing 1 volume of 97:3 v/v acetone/DMSO and 2 volumes of an aqueous mixture containing acetone, water, isopropyl alcohol, DMSO, Agri-dex crop oil concentrate, and Triton® X-77 surfactant in a 64.7:26.0:6.7:2.0:0.7:0.01 v/v ratio. Compound requirements are based upon a 12 mL application volume at a rate of 187 liters per hectare (L/ha). […] Formulated compounds were applied to the plant material with an overhead Mandel track sprayer equipped with 8002E nozzles calibrated to deliver 187 L/ha over an application area of 0.503 square meters (m^2) at a spray height of 18 inches (43 cm) above average plant canopy. Control plants were sprayed in the same manner with the solvent blank.
(§4) The treated plants and control plants were placed in a greenhouse as described above and watered by sub-irrigation to prevent wash-off of the test compounds. After 20-22 days, the condition of the test plants as compared with that of the control plants was determined visually and scored on a scale of 0 to 100 percent where 0 corresponds to no injury and 100 corresponds to complete kill.
(§5) Colby's equation was used to determine the herbicidal effects expected from the mixtures (Colby, S. R. 1967. Calculation of the synergistic and antagonistic response of herbicide combinations. Weeds 15:20-22.). Specifically, the following equation was used to calculate the expected activity of mixtures containing two active ingredients, A and B: Expected=A+B−(A×B/100) • A=observed efficacy of active ingredient A at the same concentration as used in the mixture. • B=observed efficacy of active ingredient B at the same concentration as used in the mixture.

Experiment [1] has as its system Matricaria chamomila (MATCH). Put plainly: Postemergence herbicidal activity, greenhouse, MATCH. The following applies: foliar, 20-22 days. Here is the method: as §1, §2, §3, §4, §5
In the next experiment the test system is Cirsium arvense (CIRAR). Put plainly: Postemergence herbicidal activity, greenhouse, CIRAR. The following applies: foliar, 20-22 days. Here is the method:
as §1, §2, §3, §4, §5

For experiment [2], the system named is Alopecurus myosuroides (ALOMY). Put plainly: Postemergence herbicidal activity, greenhouse, ALOMY. As to conditions: foliar, 20-22 days. Here is the method:
as §1, §2, §3, §4, §5

The test system of experiment [3] is Apera spica-venti (APESV). Put plainly: Postemergence herbicidal activity, greenhouse, APESV. As to conditions: foliar, 20-22 days. Here is the method: as §1, §2, §3, §4, §5
Experiment [4] concerns Lolium multiflorum subsp. gaudini (LOLMG). The experiment can be described thus: Postemergence herbicidal activity, greenhouse, LOLMG. The following applies: foliar, 20-22 days. Here is the method:
as §1, §2, §3, §4, §5

For experiment [5], the system named is Triticum aestivum (TRZAW). Put plainly: Postemergence herbicidal activity, greenhouse, TRZAW. The following applies: foliar, 20-22 days. Here is the method: as §1, §2, §3, §4, §5
The test system of a further experiment is Papaver rhoeas (PAPRH). Put plainly: Postemergence herbicidal activity, greenhouse, PAPRH. As to conditions: foliar, 20-22 days. Here is the method:
as §1, §2, §3, §4, §5

The subject of the next experiment is Viola tricolor (VIOTR). The experiment can be described thus: Postemergence herbicidal activity, greenhouse, VIOTR. The following applies: foliar, 20-22 days. Here is the method:
as §1, §2, §3, §4, §5

For the next experiment, the system named is Lamium purpureum (LAMPU). Put plainly: Postemergence herbicidal activity, greenhouse, LAMPU. As to conditions: Propoxycarbazone-Na 15 g/ha; foliar; 20-22 days. Here is the method:
as §1, §2, §3, §4
(§6) Colby's equation was used to determine the herbicidal effects expected from the mixtures (Colby, S. R. 1967. Calculation of the synergistic and antagonistic response of herbicide combinations. Weeds 15:20-22.). […]

In a further experiment the test system is Setaria viridis (SETVI). Put plainly: Postemergence herbicidal activity, greenhouse, SETVI. The following applies: foliar, 20-22 days. Here is the method:
as §1, §2, §3, §4, §6

Another experiment relates to Kochia scoparia (KCHSC). The experiment can be described thus: Postemergence herbicidal activity, greenhouse, KCHSC. As to conditions: foliar, 20-22 days. Here is the method: as §1, §2, §3, §4, §5
For the next experiment, the system named is Veronica persica (VERPE). Put plainly: Postemergence herbicidal activity, greenhouse, VERPE. As to conditions: foliar, 20-22 days. Here is the method:
as §1, §2, §3, §4, §5

The test system of another experiment is Salsola tragus (SASKR). Put plainly: Postemergence herbicidal activity, greenhouse, SASKR. As to conditions: foliar, 20-22 days. Here is the method: as §1, §2, §3, §4, §5
The mark [6] stands for this setting: Propoxycarbazone-Na 7.5 g ai/ha.

Consider `CCCOc1nn(C(=O)NS(=O)(=O)c2ccccc2C(=O)OC)c(=O)n1C` [Propoxycarbazone-Na, methyl 2-[[[(4,5-dihydro-4-methyl-5-oxo-3-propoxy-1H-1,2,4-triazol-1-yl)-carbonyl]amino]sulfonyl]benzoate], for which the “STEME Obs” value is on record as 12% in the experiment on Stellaria media (STEME) (setting [6]), 10% with Stellaria media (STEME) (Propoxycarbazone-Na 15 g ai/ha) and 45% in the experiment with Stellaria media (STEME) (Propoxycarbazone-Na 15 g/ha). Also, the “MATCH Obs” value came to 13% in [1] (setting [6]) and 20% in experiment [1] (Propoxycarbazone-Na 15 g ai/ha). The “CIRAR Obs” value with Cirsium arvense (CIRAR) (Propoxycarbazone-Na 15 g/ha) is reported as 65%. In addition, the figures for the “ALOMY Obs” value in experiment [2] (Propoxycarbazone-Na 7.5 g ha) and in experiment [2] (Propoxycarbazone-Na 15 g ha) were 10% and 43%, respectively. In addition, the figures for the “APESV Obs” value in experiment [3] (Propoxycarbazone-Na 7.5 g ha) and in [3] (Propoxycarbazone-Na 15 g ha) were 17% and 23%, respectively. Also, the “LOLMG Obs” value is recorded as 3% in experiment [4] (Propoxycarbazone-Na 7.5 g ha) and 20% in experiment [4] (Propoxycarbazone-Na 15 g ha). Moreover, the entries for the “TRZAW Obs” value in experiment [5] (setting [6]) and in experiment [5] (Propoxycarbazone-Na 15 g ai/ha) were 8% and 5%, respectively. In addition, the entries for the “PAPRH Obs” value in the experiment with Papaver rhoeas (PAPRH) (setting [6]) and in the experiment on Papaver rhoeas (PAPRH) (Propoxycarbazone-Na 15 g ai/ha) were 18% and 23%, respectively. Besides, the “VIOTR Obs” value is listed as 13% in the experiment with Viola tricolor (VIOTR) (setting [6]) and 23% with Viola tricolor (VIOTR) (Propoxycarbazone-Na 15 g ai/ha). Further, the “LAMPU Obs” value with Lamium purpureum (LAMPU) was found to be 0%. Moreover, the “SETVI Obs” value with Setaria viridis (SETVI) (Propoxycarbazone-Na 7.5 g ha) and in the experiment with Setaria viridis (SETVI) (Propoxycarbazone-Na 15 g ha) was 0% throughout. Moreover, the “KCHSC Obs” value in the experiment on Kochia scoparia (KCHSC) (setting [6]) amounted to 13%; with Kochia scoparia (KCHSC) (Propoxycarbazone-Na 15 g ai/ha), 25%.
Turning to `COc1nn(C(=O)NS(=O)(=O)c2ccccc2OC(F)(F)F)c(=O)n1C` [Flucarbazone-Na, 4,5-dihydro-3-methoxy-4-methyl-5-oxo-N-[[2-(trifluoromethoxy)phenyl]sulfonyl]-1H-1,2,4-triazole-1-carboxamide], the “VERPE Obs” value with Veronica persica (VERPE) (Flucarbazone-Na 3.75 g ai/ha), in the experiment on Veronica persica (VERPE) (Flucarbazone-Na 7.5 g ai/ha) and in the experiment on Veronica persica (VERPE) (Flucarbazone-Na 7.5 g/ha) was 0% in each case. Also, the “STEME Obs” value in the experiment on Stellaria media (STEME) (Flucarbazone-Na 3.75 g ai/ha) came out at 3%; in the experiment with Stellaria media (STEME) (Flucarbazone-Na 7.5 g ai/ha), 7%; in the experiment on Stellaria media (STEME) (Flucarbazone-Na 7.5 g/ha), 60%. The “MATCH Obs” value in experiment [1] (Flucarbazone-Na 3.75 g ai/ha) came to 10%; in experiment [1] (Flucarbazone-Na 7.5 g ai/ha) it was 10%; in experiment [1] (Flucarbazone-Na 7.5 g/ha), 30%. Further, in the experiment with Cirsium arvense (CIRAR) (Flucarbazone-Na 7.5 g/ha), the “CIRAR Obs” value turned out to be 50%. Further, the “ALOMY Obs” value was determined as 8% in experiment [2] (Flucarbazone-Na 3.75 g/ha) and 17% in experiment [2] (Flucarbazone-Na 7.5 g/ha). Besides, the results for the “APESV Obs” value in [3] (Flucarbazone-Na 3.75 g/ha) and in [3] (Flucarbazone-Na 7.5 g/ha) were 33% and 75%, respectively. Also, the “LOLMG Obs” value in [4] (Flucarbazone-Na 3.75 g/ha) and in experiment [4] (Flucarbazone-Na 7.5 g/ha) was 0% throughout. Further, the “TRZAW Obs” value in [5] (Flucarbazone-Na 3.75 g ai/ha) is recorded as 2%; in experiment [5] (Flucarbazone-Na 7.5 g ai/ha), 7%. For the same compound, the “PAPRH Obs” value in the experiment with Papaver rhoeas (PAPRH) (Flucarbazone-Na 3.75 g ai/ha) and in the experiment with Papaver rhoeas (PAPRH) (Flucarbazone-Na 7.5 g ai/ha) was 0% in each case. Further, the “SASKR Obs” value with Salsola tragus (SASKR) (Flucarbazone-Na 3.75 g ai/ha) was found to be 10%; with Salsola tragus (SASKR) (Flucarbazone-Na 7.5 g ai/ha) it was 7%. The “VIOTR Obs” value in the experiment with Viola tricolor (VIOTR) (Flucarbazone-Na 3.75 g ai/ha) and in the experiment with Viola tricolor (VIOTR) (Flucarbazone-Na 7.5 g ai/ha) was 7% each time.
